Consider 1 substance from patent US20060276385A1, “Anti-inflammatory agents and methods of their use” (priority 2003, published 2006).

The test system of experiment [1] is MAE-wt cells. Put plainly: H2O2 assay by oxidation of DCF-DA. Format: cell-based, mouse. The settings on record: BMP4 18 hrs. How it is done: H2O2 assay: Cells grown in 6-well plates were treated with BMP4 or vehicle control for 18 hrs in the presence or absence of cell-permeable polyethylene glycol (PEG)-catalase (100 U/ml). Cells were then washed once with Hepes buffered saline solution (HBSS) followed by incubation with 7.5 μg/ml 2′, 7′-dichlorofluorescein diacetate (DCF-DA, Molecular Probes) in HBSS for 1 hr at 37 C° in the dark. Cells were washed with HBSS, incubated further for an additional 40 min in HBSS, and the DCF fluorescence intensities were measured in a Cytofluor Multi-Well plate reader (excitation at 475 nm and emission at 525 nm).
In addition, BMP4 stimulated production of H2O2 by 70% above control as determined by oxidation of DCF-DA (FIG. 10B). […] The cells were washed, incubated with DCF-DA, and the fluorescent intensities determined by fluorometry. Shown is a mean±SEM (n=3, p<0.05). In this assay, a redox cycling menadione (10 μM) was used as positive control (data not shown).

Another experiment deals with E-selectin. Put plainly: E-selectin surface expression by FACS analysis in HAEC. Format: cell-based, human. The settings on record: TNF-α 100 U/ml for 2 hr as positive control. How it is done: Fluorescence activated cytometry sorting (FACS) analysis: Treated cells were dissociated into single cell suspensions using 0.25% trypsin-EDTA and resuspended in a FACS buffer (Hank's buffered solution containing 5% FBS). Aliquots of cell suspensions were incubated with ICAM-1 antibody (R&D Systems) for 20 min on ice, washed twice with FACS buffer, and incubated with secondary antibody (fluorescein-5-isothiocyanate- or phycoerytherin-conjugated, Chemicon) for 20 min on ice in the dark. Then samples were washed again, fixed in 1% paraformaldehyde and analyzed by FACS (Calibur, Becton-Dickinson) using CellQuest software. The fluorescence intensity of ICAM-1 and forward cell scattering of 30,000 cells were measured and the geometric means calculated from histograms were shown. […] In these experiments, ICAM-1 expression was measured in the red phycoerytherin channel, while the green channel was used to monitor the […] expression-GFP expression was determined by FACS analysis and fluorescence microscopy (20-30% transfection efficiency). […]
HAEC treated with OS, BMP4 or static condition were analyzed by FACS using antibodies specific to VCAM-1 (C) and E-selectin (D) as described in panel A using TNFa (1OOU/ml, for 2 hr) as a positive control.
On the technique in general: In flow cytometry, cells or beads pass a laser one at a time.

The subject of experiment [2] is MAE-wt cells. Briefly: O2− assay by electron spin resonance spectroscopy with CMH spin probe. In kind it is cell-based, mouse. The settings on record: MAE-wt cells, BMP4 200 ng/ml for 18 hrs, SOD-inhibitable CM signal. On the procedure:
O2^− Assay: O2^− production was determined by electron spin resonance spectroscopy using methoxycarbonyl-2,2,5,5-tetramethyl-pyrrolidine (CMH) as a spin probe in the presence or absence of PEG-superoxide dismutase (PEG-SOD; 50 U/ml) to quantify the SOD-inhibitable portions of CM.
In FIG. 10A immediately following treatment of MAE wt cells with BMP4 (200 ng/ml) for 18 hrs, cells were trypsinized and reconstituted in Krebs-Hepes buffer. Equal number of cells was incubated with a spin trap CMH in the presence or absence of PEG-SOD (50 U/mL). The specific O2^− production was calculated by subtracting SOD-inhibitable portions from total O2^− production as determined by following CM production (mean±SEM, n=3, *p<0.05).

Another experiment deals with NF-κB. Put plainly: NF-κB assay with NF-κB-SEAP reporter construct. Format: cell-based. Conditions: NF-κB-SEAP co-transfected with BMP4 vector vs empty vector. How it is done:
NF-κB assay: NF-κB activity was determined by using a NF-κB reporter construct, NF-κB-SEAP vector (lug, Clontech) expressing a secreted form of placental alkaline phosphatase driven by […] sequences in tandem. This construct was co-transfected with 0.5 μg of either pAdTrack BMP4 or empty vector control using Lipofectamine 2000. Six hours post transfection, conditioned media were centrifuged, heat-treated at 65° C. (to inactivate endogenous alkaline phosphatase) for 30 min, and followed by chemiluminescence alkaline phosphatase assay according to the manufacturer's instructions.
In this study, NF-κB-SEAP construct expressing a secreted form of placental alkaline phosphatase driven by 4 κB sequences in tandem was co-transfected with either BMP4 vector or empty vector control by a Lipofectamine method used above (FIG. 5F).

Consider BMP4, for which the “production of H2O2 above control” value in the experiment on MAE-wt cells [1] was 70%. In the experiment with E-selectin, the “effect on surface expression of E-selectin” value was “neither OS nor BMP4 had any effect”. Besides, in the experiment on MAE-wt cells [2], the “O2− production above control” value was determined as 2.9 fold. Moreover, the “NF-κB activity above controls” value with NF-κB is recorded as “more than 3 fold”.
